Data reported in patent US9493795B2 (Algenol Biofuels Inc., priority 2013, dated 2016).
Where two headings read alike, the source gives them in different places.

How the values were obtained:
[1] = tested on: alcohol dehydrogenase from Lyngbya sp., wild type, SEQ ID NO: 1; assay: Km determination of native Adh in cell extract (forward and back reaction), Lyngbya sp.; format: biochemical; conditions: pH 7.5, 30° C.
[2] = tested on: alcohol dehydrogenase from Synechococcus sp., wild type, SEQ ID NO: 6; assay: Km determination of native Adh in cell extract (forward and back reaction), Synechococcus sp. SEQ ID NO: 6; format: biochemical; conditions: pH 7.5, 30° C.
Procedure: (§1) Km values of ADH enzymes were determined herein by varying concentrations of one substrate only while keeping all other substrates at saturated levels. The kinetic parameters of the ADH enzymes were determined herein on cellular extracts, and not on pure enzyme. Km was determined herein using a nonlinear regression algorithm for the single-substrate version of the Michaelis-Menten model by using GraphPad Prism Software (version 5). The detailed description of the algorithm is available on the world wide web at “graphpad.com/guides/prism/6/curve-fitting/index.htm?reg_kcat.htm”.
(§2) As used herein, the Km value was measured according to the method described in Example 4. […] For the forward reaction measurement, 0.15 mM NADPH was added, and acetaldehyde was added in differing amounts ranging from […] to 50 mM. The NADPH oxidation was measured at a wavelength of 340 nm.
(§3) In the above aspects, the Km-values represent the Km-values of the native, i.e. non-recombinant, form of the alcohol dehydrogenase enzyme. A Km-value as used herein can be determined from the endogenously expressed alcohol dehydrogenase enzyme of a wild-type cyanobacterial cell. […]
(§4) The reaction was started by addition of varying amounts of acetaldehyde in final concentrations between 1 μM and 50 mM. The NADPH oxidation was spectrophotometrically monitored at a wavelength of 340 nm on a Shimadzu UV2450 spectrophotometer. […]

[3] = tested on: alcohol dehydrogenase from Cyanothece sp., wild type, SEQ ID NO: 3; assay: Km determination of native Adh in cell extract (forward and back reaction), Cyanothece sp.; format: biochemical; conditions: pH 7.5, 30° C.
Adh from LPP = assay: Km determination in the screening, Adh from LPP; format: biochemical; conditions: identified in the screening
Procedure: as §1, §2, §3, §4

[4] = tested on: alcohol dehydrogenase from Synechococcus sp., wild type, SEQ ID NO: 5; assay: Km determination of native Adh in cell extract (forward and back reaction), Synechococcus sp. SEQ ID NO: 5; format: biochemical; conditions: pH 7.5, 30° C.
Procedure: as §1, §2, §3, §4

[5] = tested on: alcohol dehydrogenase AdhA from Moorella sp. HUC22-1; conditions: Inokuma et al., Arch Microbiol 188 (2007) 37-45, cited from earlier work
[6] = tested on: alcohol dehydrogenase from Synechococcus sp., wild type, SEQ ID NO: 4; assay: Km determination of native Adh in cell extract (forward and back reaction), Synechococcus sp. SEQ ID NO: 4; format: biochemical; conditions: pH 7.5, 30° C.
Procedure: as §1, §2, §3, §4

[7] = tested on: alcohol dehydrogenase from Arthronema africanum, wild type, SEQ ID NO: 8; assay: Km determination of native Adh in cell extract (forward and back reaction), Arthronema africanum; format: biochemical; conditions: 0.15 mM NADPH, pH 7.5, 30° C., read-out: Km(MeCHO)
[8] = tested on: alcohol dehydrogenase from Chroococcidiopsis sp., wild type, SEQ ID NO: 9; assay: Km determination of native Adh in cell extract (forward and back reaction), Chroococcidiopsis sp. SEQ ID NO: 9; format: biochemical; conditions: 0.15 mM NADPH, pH 7.5, 30° C., read-out: Km(MeCHO)
Procedure: as §1, §2, §3, §4

[9] = back reaction, 0.15 mM NADP+, read-out: Km(EtOH)
[10] = 0.15 mM NADPH, read-out: Km(MeCHO)

For CCO [ethanol], the Km ([1]; back reaction, 0.15 mM NADP+, cell extract, read-out: Km(EtOH)) was 830 µM, the Km [2, 9] was 29300 µM and the Km [3, 9] was 9330 µM. The Km (Adh from LPP; read-out: Km for ethanol) was 3600 µM, the Km [4, 9] was 67000 µM and the Km ([5]; read-out: Km for ethanol) was 40000 µM. The Km [6, 9] was 32400 µM.
In the case of CCC=O [propanal], the Km ([1]; as Example 4: 0.15 mM NADPH, FIG. 15A, read-out: Km for propanal) is reported as 5.3 µM.
Compound CC=O [acetaldehyde] has a Km ([1]; 0.15 mM NADPH, cell extract, Example 13, read-out: Km value for acetaldehyde) of 6 µM, a Km ([1]; 0.15 mM NADPH, cell extract, read-out: Km(MeCHO)) of 5.8 µM and a Km [2, 10] of 1130 µM. The Km [3, 10] was 75.6 µM, the Km (Adh from LPP; read-out: Km for acetaldehyde) was 120 µM and the Km [4, 10] was 783 µM. The Km [7] was 3340 µM, the Km ([5]; read-out: Km for acetaldehyde) was 10000 µM and the Km [6, 10] was 731 µM. For the same compound, the Km [8] was 3730 µM.
